# Test results published in patent US20110021475A1, “Compositions And Methods for Treatment Of Fibrosis” (priority 2003, published 2011).
# What was measured:
# [1] = tested on: bile duct ligated (BDL) rats; test: Bile duct ligated (BDL) rats: serum chemistry, liver histology and liver fibrosis marker mRNA; format: in vivo, rat; conditions: for level of Collagen I mRNA in liver / level of alpha SMA mRNA in liver: compared to sham operated rats (p<0.05)
# Experimental: A study of the effects of an FXR agonist (GW4064) on the livers of bile duct ligated (BDL) rats was carried out. This study was initially devised to examine the effects of FXR agonist on non-fibrotic liver damage due to cholestosis. The present researchers additionally went on to examine samples from these experiments for markers of liver fibrosis.
# Male Sprague-Dawley rats (approximately 300 grams) were obtained from Charles River Laboratories Inc (Raleigh, N.C.) and were maintained on a 12 hour light/12 hour dark light cycle. Animals were anesthetized by the administration of 2-3% isoflurane. Laparotomy was performed under sterile technique and the liver and duodenum gently displaced to reveal the common bile duct. The bile duct was separated from the surrounding tissue and two ligatures of 4-0 Ethilon were placed around it. The bile duct was clamped between the two ligatures with an aneurysm clamp and the ligatures drawn tight. An additional ligature was placed proximal to the first (near the liver). The clamp was removed and the bile duct severed between the ligatures. The muscle wall was closed with 4-0 Vicryl and the skin closed with staples. Sham controls underwent laparotomy, but the bile ducts were not ligated or transected. Animals were allowed food and water ad libitum throughout the study period. Animals were anesthetized with 2-3% isoflurane and sacrificed by cardiac puncture.
# Twenty-four hours after surgery, groups of rats (n=6-8) received intraperitoneal injections once daily for four days, of either (a) 5 ml/kg corn oil (vehicle); (b) 30 mg/kg GW4064 in corn oil; or (c) 15 mg/kg TUDCA in corn oil (taurine-conjugated ursodeoxycholic acid, used clinically to treat cholestosis). Sham operated animals received intraperitoneal injections of 5 ml/kg corn oil vehicle 24 hours after sham operation. Four hours after the last dose on day four, blood and livers were collected.
# Serum activities of alanine aminotransferase (ALT), asparate aminotransferase (AST), sorbital dehydrogenase (SDH), y-glutamyl transferase (GGT), lactate dehydrogenase (LDH), alkaline phosphatase (ALP) and total bilirubin were determined. Serum bile acids (BILEA) were determined using a commercially available assay (Sigma Chemical Co., St Louis, Mo.).
# In humans, liver fibrosis secondary to cholestatic disease is known to occur clinically. Experimentally, bile duct ligation in rats as a model of cholestosis is also known to cause liver fibrosis. In view of this, the present researchers additionally examined the BDL rat liver tissue for markers of liver fibrosis. Levels of Smooth Muscle Actin (SMA) mRNA, Collagen I mRNA, and TGFbeta1 mRNA were measured; results are graphed in FIG. 1a-1c where white bars=sham operated rats; black bars=vehicle treated BDL rats; striped bars=GW4064 treated BDL rats; and dotted bars=TUDCA treated BDL rats.
# [2] = tested on: rat hepatic stellate cells; test: In vitro stellate cell activation (RTQ-PCR of SMA, collagen, fibronectin mRNA); format: cell-based
# Experimental: Rat hepatic stellate cells were isolated from male CRL:CD(SD)IGS® rats (Charles River Laboratories) as described previously. Cells were plated into six well plates at a density of 1×10^6 cells/well in DMEM-F12 media with 20% FCS. Twenty-four hours after plating, the media was replaced with media containing 0.1% DMSO (vehicle control) or 10 uM GW4064 with 0.1% DMSO. Following 2, 4, 6 or 8 days of treatment, total RNA was extracted from the cells using TRIzol reagent (Invitrogen) according to the manufacturer's directions. The RNA was treated with DNase I (Ambion, Austin, Tex.) at 37° C. for 30 min, followed by inactivation at 75° C. for 5 min. RNA was then quantitated using the RiboGreen RNA quantitation kit (Molecular Probes, Eugene, Oreg.). RNA expression was measured by RTQ-PCR using an ABI PRISM 7700 or 7900 Sequence Detection System (PE Applied Biosystems, Foster City, Calif.). For analysis, gene expression was normalized to 18S RNA. Follow-up studies were conducted using the same study design, except for a lower dose of GW4064 (3 uM). In the vehicle control group, SMA, collagen and fibronectin peaked at six days of culture; collagen and fibronectin expression began to decline following eight days in culture (FIGS. 4A-4C, white bars). […] (FIGS. 4a-4c, shaded bars; asterisk indicates p<0.05 compared to the vehicle treatment at the indicated timepoint).
# [3] = tested on: rats treated with carbon tetrachloride (CCl4); test: Acute liver fibrosis in vivo model (single dose CCl4); set-up: species or system rat
# Experimental: Male CRL:CD(SD)IGS® rats (Charles River Laboratories) weighing 250-280 g were randomized into three groups of 5-6 rats per group. On day 1, rats in Group 1 (Control) were given a single intraperitoneal (ip) injection of corn oil (5 ml/kg). Rats in Groups 2 and 3 were given a single ip injection of 30% carbon tetrachloride (CCl4) in corn oil (5 ml/kg). Beginning four hours after the initial ip injections and continuing for four days, rats in Group 1 (Control) and Group 2 (CCl4) were given vehicle (20% Encapsin; Cerestar Inc., IN) by oral gavage twice daily. Beginning four hours after the initial ip injections and continuing for four days, rats in Group 3 (CCl4+GW4064) were given 30 mg/kg GW4064 in vehicle by oral gavage, twice daily for four days.
# Four hours after the final oral dose on day four, rats were sacrificed under deep anesthesia and blood and livers were collected. A portion of liver from each rat was fixed in 10% phosphate-buffered formalin (pH 7.4). The remaining livers were snap frozen in liquid nitrogen and stored at −80° C. prior to RNA extraction.
# Histopathology: The tissues were processed by standard histological techniques. Liver sections were stained with hematoxylin and eosin (H&E) using standard protocols and examined by light microscopy for necrosis and other structural changes. Immunohistochemistry was used to visualize α-smooth muscle actin (DAKO Corporation, CA) according to the manufacturer's instructions. Sirius Red (Sigma, St Louis, Mo.) was used to visualize collagen according to the manufacturer's instructions.
# (§1) Reverse Transcription Quantitative Polymerase Chain Reaction (RTQ-PCR). Total RNA was extracted from rat liver using TRIzol reagent (Invitrogen) according to the manufacturer's directions. The RNA was treated with DNase I (Ambion, Austin, Tex.) at 37° C. for 30 min, followed by inactivation at 75° C. for 5 min. RNA was then quantitated using the RiboGreen RNA quantitation kit (Molecular Probes, Eugene, Oreg.). RNA expression was measured by RTQ-PCR using an ABI PRISM 7700 or 7900 Sequence Detection System (PE Applied Biosystems, Foster City, Calif.).
# (§2) Statistical Analysis: All data were analyzed by one-way analysis of variance (ANOVA) followed by Duncan's multiple range test. The 0.05 level of probability was used as the criteria of significance.
# [4] = tested on: rats treated with carbon tetrachloride (CCl4); test: Chronic liver fibrosis in vivo model (twice weekly CCl4 up to eight weeks); set-up: species or system rat
# Experimental: Male CRL:CD(SD)IGS® rats (Charles River Laboratories) weighing 250-350 were randomized into 3 groups. All rats received twice weekly intraperitoneal (ip) injections of 20% carbon tetrachloride (CCl4) in corn oil (5 ml/kg) for the duration of the study. Two weeks after the initiation of the CCl4 injections, rats in Group 1 (CCL4+Vehicle) began receiving vehicle (6% Encapsin; Cerestar Inc., IN) twice daily, rats in Group 2 (CCL4+GW4064) began receiving 30 mg/kg GW4064 in vehicle twice daily, and rats in Group 3 (CCL4+Silymarin) began receiving silymarin in vehicle twice daily. (Silymarin reduces TGFb1 and collagen deposition in fibrotic rat liver (Jia et al., J Hepatol 2001 September; 35(3):392-8).
# Multiple rats from each group were sacrificed after each of four, six and eight weeks on study. Rats were also sacrificed following the two weeks of CCL4 exposure, prior to initiation of drug treatment, as well as five untreated Naive rats. An additional five untreated Naïve rats were also sacrificed at the eight week timepoint. Plasma, serum, kidneys and livers were collected for analysis. Histopathological, mRNA and serum markers of liver damage and liver fibrosis were examined.
# Histopathology: The tissues were processed by standard histological techniques. Liver sections were stained with hematoxylin and eosin (H&E) using standard protocols and examined by light microscopy for necrosis and other structural changes. Immunohistochemistry was used to visualize α-smooth muscle actin (Sigma, St Louis, Mo.) according to the manufacturer's instructions. Sirius Red (Sigma, St Louis, Mo.) was used to visualize collagen according to the manufacturer's instructions. Liver sections were stained with Masson's trichrome (Sigma, St Louis, Mo.) according to the manufacturer's instructions.
# as §1, with “from sections of” for “from”, “75°C.” for “75° C.”
# Serum Analysis: Serum TIMP1 (R&D Systems, Minneapolis, Minn.) levels were measured according to the manufacturer's directions.
# as §2
# [5] = tested on: human hepatocytes; conditions: compared to control cells; cited from earlier work
# [6] = 30 mg/kg GW4064 or 15 mg/kg TUDCA ip once daily for four days, compared to vehicle-treated BDL rats
# [7] = day four, compared to vehicle-treated BDL rats
# [8] = ip once daily for four days, compared to vehicle treated BDL rats
# [9] = 3 uM, eight days, compared to vehicle
# [10] = 3 uM, six days, compared to vehicle
# [11] = 10 uM, eighth day, compared to control group, normalized to 18S
# [12] = 10 uM, six days, compared to vehicle control group
# [13] = 30 mg/kg oral gavage twice daily for four days after single CCl4, compared to CCl4+V animals
# [14] = 30 mg/kg oral twice daily four days, compared to control
# [15] = 30 mg/kg oral twice daily four days, compared to group 2 (CCl4+vehicle), p<0.05
# [16] = twice daily from week 2, compared to CCl4+Vehicle rats
# [17] = twice daily from week 2, compared to CCl4+Vehicle rats, 8 week timepoint
compound,measurement,setting,value
CC(C)c1onc(-c2c(Cl)cccc2Cl)c1COc1ccc(/C=C/c2cccc(C(=O)O)c2)c(Cl)c1 [GW4064],serum level of ALT,[1]; [6],reductions
same,serum level of LDH,[1]; [6],reductions
same,level of TGFb1 mRNA in liver,"[1]; day four, compared to BDL rats receiving vehicle or TUDCA",significantly reduced
same,level of Collagen I mRNA in liver,[1]; day four,significantly different
same,level of alpha SMA mRNA in liver,[1]; day four,significantly different
same,number of mitotic nuclei (liver histology),"[1]; day four, compared to vehicle treatment",reduced
same,bile duct proliferation (liver histology),[1]; [7],reduced bile duct proliferation
same,fatty cell degeneration (liver histology),[1]; [7],decreased fatty cell degeneration
same,liver necrotic lesions (histology),[1]; [7],qualitatively fewer and smaller necrotic lesions
same,serum bile acids,[1]; [8],did not significantly reduce
same,serum level of ALP,[1]; [8],did not significantly reduce
same,serum level of GGT,[1]; [8],did not significantly reduce
same,serum level of SDH,[1]; [8],did not significantly reduce
same,serum total bilirubin,[1]; [8],did not significantly reduce
same,serum level of AST,"[1]; ip once daily for four days, compared to vehicle-treated BDL rats",reductions
same,collagen mRNA,[2]; [9],not significantly different from vehicle
same,decrease of SMA mRNA,[2]; [9],40%
same,fibronectin mRNA,[2]; [9],not significantly different from vehicle
same,decrease of SMA mRNA,[2]; [10],55%
same,decrease of collagen mRNA,[2]; [10],31%
same,decrease of fibronectin mRNA,[2]; [10],28%
same,decrease of SMA mRNA,[2]; [11],84%
same,decrease of collagen mRNA,[2]; [11],51%
same,decrease of fibronectin mRNA,[2]; [11],79%
same,SMA mRNA,[2]; [12],decreased
same,fibronectin mRNA,[2]; [12],decreased
same,liver SMA (immunohistochemistry),[3]; [13],reduced SMA
same,liver collagen deposition (Sirius Red),[3]; [13],reduced collagen deposition
same,liver Collagen I mRNA,[3]; [14],not statistically different from control
same,liver SMA mRNA,[3]; [14],not statistically different from control
same,liver TGFb1 mRNA,[3]; [14],not statistically different from control
same,liver Collagen I mRNA,[3]; [15],significantly decreased
same,liver SMA mRNA,[3]; [15],significantly decreased
same,liver collagen deposition (Sirius Red),"[4]; twice daily from week 2 (GW4064 30 mg/kg), six and eight week timepoints, compared to CCl4+V animals",reduced collagen deposition
same,liver TGFb1 mRNA,[4]; [16],unchanged
same,reduction in liver SMA mRNA,[4]; [16],not statistically significant
same,liver Collagen I mRNA,[4]; [17],significant reductions
same,liver TIMP1 mRNA,[4]; [17],significant reductions
same,serum TIMP1,"[4]; twice daily from week 2, compared to CCl4+Vehicle treated rats at 8 weeks, p<0.05",significant reductions
same,expression of Fibroblast Growth Factor 19 (FGF19),[5],increased
"C[C@H](CCC(=O)NCCS(=O)(=O)O)[C@H]1CC[C@H]2[C@@H]3[C@@H](O)C[C@@H]4C[C@H](O)CC[C@]4(C)[C@H]3CC[C@]12C [TUDCA, taurine-conjugated ursodeoxycholic acid, reference compound]",serum level of LDH,[1]; [6],significant decrease
same,level of Collagen I mRNA in liver,[1]; day four,significantly different
same,level of alpha SMA mRNA in liver,[1]; day four,significantly different
same,"liver sections, histology overall (necrosis, bile duct proliferation)","[1]; day four, compared to vehicle treated BDL rats",did not appear to differ substantially from vehicle treated BDL rats
